Experimental data published in patent US20250152559A1, “METHODS FOR TREATING MYC-AMPLIFIED CANCER” (The Governing Council of the University of Toronto, priority 2023, published 2025).

Tested on: SU_MB002 cells
Assay: Mass spectrometry-based metabolomics and lipidomics of treated cells
Format: cell-based, human
Description: For metabolome and lipidome profiling, ˜10^6 cells and tissues were washed with PBS prior to collection and immediately flash frozen. For metabolite extraction, 1 mL of cold acetonitrile/methanol/water (2:2:1; v:v:v) was added to the cell pellets followed by 3 cycles of freezing in liquid N2 for 1 min, followed by 15 min of thawing in a sonicating ice/water bath. This was followed by incubation at −20° C. and centrifugation at 16,000×g for 15 min at 4° C. […] to fully precipitate protein. Supernatants were transferred to another tube and dried in a vacuum concentrator. For lipid extraction, cells were resuspended in 30 μL of water, followed by three cycles of freeze/thawing and sonication. To this, 225 μL of methanol was added, followed by brief vortexing and addition of 750 μL of methyl tert-butyl ether (MTBE). Samples were incubated at room temperature for 1 hr with gentle shaking. To induce phase-separation, 188 μL of water was added, samples were vortexed for 20 s and centrifuged for 5 min at 16,000×g. The upper and lower phases were collected and transferred to another tube and dried down in a vacuum concentrator. The dry metabolome and lipidome extracts were stored at −80° C. prior to analysis by liquid chromatography-mass spectrometry (LC-MS). Metabolite extracts were reconstituted in LC-MS grade water/acetonitrile (50:50; v:v), vortexed for 1 min, sonicated for 15 min, and centrifuged at 16,000×g and 4° C. for 15 min to remove insoluble debris. The lipidome extracts were reconstituted in acetonitrile/2-propanol (50:50; v:v), vortexed for 1 min, sonicated for 15 min, and centrifuged at 16,000×g and 10° C. for 15 min to remove insoluble debris.
The LC-MS metabolomics and lipidomics analyses of the 3 NSC and 3 MB cell lines and tissues were performed on a UPLC-MS system consisting of an Orbitrap IQ-X Tribrid coupled to a Horizon Vanquish UPLC system (Thermo Fisher Scientific). The lipidomics analysis was conducted in positive-ion mode with a spray voltage of 3.5 kV while the metabolomics analysis was conducted in negative-ion mode with a spray voltage of −2.5 kV. The following source conditions were identical in both analyses and were set as follows: Sheath gas flow rate, 50 arbitrary units; Aux. gas flow rate, 10 arbitrary units; Sweep gas flow rate, 1 arbitrary unit; Ion transfer tube temp., 300° C.; Vaporizer temp., 350° C. The following acquisition parameters were used for MS1 analysis in both methods: resolution, 120,000, AGC target, 4e5. The maximum IT was set at […] for the lipidomics analysis and 200 ms for the metabolomics analysis. Data-dependent MS/MS parameters for the lipidomics analyses: resolution, 30,000; AGC target, 7.5e4; maximum IT, Dynamic (54 ms); time between Master Scans, 0.6 s; isolation window, 1.0 m/z; NCE/stepped nce, 20, 30, 40; intensity threshold, 5e4; exclude isotopes, on; dynamic exclusion, 3.0 s. Data-dependent MS/MS parameters for the metabolomics analyses: resolution. 15,000; AGC target, 7.5e4; maximum IT, Dynamic (22 ms); time between Master Scans, 0.6 s; isolation window, 1.0 m/z; NCE/stepped nce, 20, 30, 40, 50; intensity threshold, 5e4; exclude isotopes, on; dynamic exclusion, 5.0 s. To increase the total number of MS/MS spectra in the lipidomics analysis, five runs with iterative MS/MS exclusions were performed using the AcquireX function in Xcalibur (Thermo Fisher Scientific). In the metabolomics analysis, three runs with iterative MS/MS exclusions were performed using the AcquireX function. For the lipidomics analysis, chromatographic separation was achieved using a Waters Acquity UPLC CSH C18 (100 mm×2.1 mm i.d.; 1.7 μm) column injecting 2 μL. […] The column was equilibrated for 2 min at 15% B. The flow rate was set to 250 μL/min. The column temperature was maintained at 65° C. For the metabolomics analysis, chromatographic separation was achieved using a SeQuant ZIC-PHILIC (150 mm×2.1 mm i.d.; 5 μm) column injecting 2 μL. […]

[1] = SU_MB002 cells treated with BAY (IC90)
[2] = SU_MB002 cells, BAY (IC90) vs vehicle

## CCn1c(CO)nn(-c2cc(O[C@@H](C)C(F)(F)F)c(C(=O)Nc3c(F)cccc3Cl)cc2F)c1=O [BAY2402234]
[1]
  2-Aminoadipic acid normalized peak intensity, BAY average: 26487
  Argininosuccinic acid normalized peak intensity, BAY average: 114194
  Asparagine normalized peak intensity, BAY average: 172639.25
  Aspartic Acid normalized peak intensity, BAY average: 214198
  CDP normalized peak intensity, BAY average: 5476872.25
  CTP normalized peak intensity, BAY average: 810207.75
  Citramalate normalized peak intensity, BAY average: 4459.5
  Citrate normalized peak intensity, BAY average: 76953
  Creatine phosphate normalized peak intensity, BAY average: 619707.25
  Cystathionine normalized peak intensity, BAY average: 3636
  Dihydroorotic Acid normalized peak intensity, BAY average: 462202
  Gluconic acid normalized peak intensity, BAY average: 1081576.5
  Glutamate normalized peak intensity, BAY average: 26227101.8
  Glyceraldehyde-3-phosphate normalized peak intensity, BAY average: 78313.3333
  Hydroxyglutaric acid normalized peak intensity, BAY average: 37974496.3
  Inositol normalized peak intensity, BAY average: 40859409.5
  N-Acetyl glucosamine monophosphate normalized peak intensity, BAY average: 8697678.5
  N-Acetylglutamic Acid normalized peak intensity, BAY average: 189382
  N-Carbamoyl Aspartic Acid normalized peak intensity, BAY average: 31547.3333
  PE O-32:1 normalized peak intensity, BAY average: 2472183.74
  PE O-32:2 normalized peak intensity, BAY average: 11446617.4
  PE O-34:1 normalized peak intensity, BAY average: 3839410.03
  PE O-34:2 normalized peak intensity, BAY average: 92503648
  PE O-36:1 normalized peak intensity, BAY average: 531398.036
  PE O-36:2 normalized peak intensity, BAY average: 102597837
  PE O-36:4 normalized peak intensity, BAY average: 258977958
  PE O-38:4 normalized peak intensity, BAY average: 210123122
  PE O-40:2 normalized peak intensity, BAY average: 10612336
  PE O-40:4 normalized peak intensity, BAY average: 226507622
  PE O-42:3 normalized peak intensity, BAY average: 911901.571
  PE O-42:4 normalized peak intensity, BAY average: 13670542.5
  PE O-42:5 normalized peak intensity, BAY average: 14681375.2
  Proline normalized peak intensity, BAY average: 129729612
  Saccharopine normalized peak intensity, BAY average: 11126.3333
  Sarcosine normalized peak intensity, BAY average: 178498.5
  TG(42:0) normalized peak intensity, BAY average: 15967351.9
  TG(44:0) normalized peak intensity, BAY average: 64916660.2
  TG(44:1) normalized peak intensity, BAY average: 72494555.5
  TG(44:2) normalized peak intensity, BAY average: 23582680.7
  TG(46:3) normalized peak intensity, BAY average: 35191113.7
  TG(48:0) normalized peak intensity, BAY average: 234715455
  TG(48:1) normalized peak intensity, BAY average: 2421262.9
  TG(48:3) normalized peak intensity, BAY average: 16895583.2
  TG(48:4) normalized peak intensity, BAY average: 33300539.1
  TG(48:5) normalized peak intensity, BAY average: 2707280.56
  TG(50:0) normalized peak intensity, BAY average: 235218307
  TG(50:2) normalized peak intensity, BAY average: 1182402177
  TG(50:3) normalized peak intensity, BAY average: 595402718
  TG(52:1) normalized peak intensity, BAY average: 649526618
  TG(52:5) normalized peak intensity, BAY average: 9440406.47
  TG(54:1) normalized peak intensity, BAY average: 104051454
  TG(54:6) normalized peak intensity, BAY average: 36773026.8
  TG(56:7) normalized peak intensity, BAY average: 13481295.5
  UDP normalized peak intensity, BAY average: 964954.5
  UDP-Glucose normalized peak intensity, BAY average: 609888.333
  UTP normalized peak intensity, BAY average: 215065
  Uridine normalized peak intensity, BAY average: 26154.5
  Xanthosine normalized peak intensity, BAY average: 617698.75
  alpha-Ketoglutaric acid normalized peak intensity, BAY average: 112368
  dCTP normalized peak intensity, BAY average: 109835
  dTDP normalized peak intensity, BAY average: 13149248
[2]
  2-Aminoadipic acid Log2 Fold Change: (BAY)/(DMSO): −1.831
  Argininosuccinic acid Log2 Fold Change: (BAY)/(DMSO): 0.9374
  Asparagine Log2 Fold Change: (BAY)/(DMSO): −2.552
  Aspartic Acid Log2 Fold Change: (BAY)/(DMSO): 0.6679
  CDP Log2 Fold Change: (BAY)/(DMSO): −1.056
  CTP Log2 Fold Change: (BAY)/(DMSO): −1.688
  Citramalate Log2 Fold Change: (BAY)/(DMSO): −1.15
  Citrate Log2 Fold Change: (BAY)/(DMSO): −2.924
  Creatine phosphate Log2 Fold Change: (BAY)/(DMSO): −0.8039
  Cystathionine Log2 Fold Change: (BAY)/(DMSO): −1.709
  Dihydroorotic Acid Log2 Fold Change: (BAY)/(DMSO): −2.147
  Gluconic acid Log2 Fold Change: (BAY)/(DMSO): 2.808
  Glutamate Log2 Fold Change: (BAY)/(DMSO): 0.5525
  Glyceraldehyde-3-phosphate Log2 Fold Change: (BAY)/(DMSO): −1.224
  Hydroxyglutaric acid Log2 Fold Change: (BAY)/(DMSO): 7.211
  Inositol Log2 Fold Change: (BAY)/(DMSO): −0.7576
  N-Acetyl glucosamine monophosphate Log2 Fold Change: (BAY)/(DMSO): −0.5317
  N-Acetylglutamic Acid Log2 Fold Change: (BAY)/(DMSO): 1.218
  N-Carbamoyl Aspartic Acid Log2 Fold Change: (BAY)/(DMSO): −2.853
  PE O-32:1 Log2 Fold Change: (BAY)/(DMSO): 1.371
  PE O-32:2 Log2 Fold Change: (BAY)/(DMSO): 1.59
  PE O-34:1 Log2 Fold Change: (BAY)/(DMSO): 0.7945
  PE O-34:2 Log2 Fold Change: (BAY)/(DMSO): 1.319
  PE O-36:1 Log2 Fold Change: (BAY)/(DMSO): 0.9815
  PE O-36:2 Log2 Fold Change: (BAY)/(DMSO): 0.7435
  PE O-36:4 Log2 Fold Change: (BAY)/(DMSO): 0.9655
  PE O-38:4 Log2 Fold Change: (BAY)/(DMSO): 0.6388
  PE O-40:2 Log2 Fold Change: (BAY)/(DMSO): 0.4723
  PE O-40:4 Log2 Fold Change: (BAY)/(DMSO): 0.2968
  PE O-42:3 Log2 Fold Change: (BAY)/(DMSO): 0.5216
  PE O-42:4 Log2 Fold Change: (BAY)/(DMSO): 0.6964
  PE O-42:5 Log2 Fold Change: (BAY)/(DMSO): 0.2828
  Proline Log2 Fold Change: (BAY)/(DMSO): 11.27
  Saccharopine Log2 Fold Change: (BAY)/(DMSO): −1.712
  Sarcosine Log2 Fold Change: (BAY)/(DMSO): −0.4764
  TG(42:0) Log2 Fold Change: (BAY)/(DMSO): 2.859
  TG(44:0) Log2 Fold Change: (BAY)/(DMSO): 2.947
  TG(44:1) Log2 Fold Change: (BAY)/(DMSO): 3.568
  TG(44:2) Log2 Fold Change: (BAY)/(DMSO): 4.285
  TG(46:3) Log2 Fold Change: (BAY)/(DMSO): 4.265
  TG(48:0) Log2 Fold Change: (BAY)/(DMSO): 1.816
  TG(48:1) Log2 Fold Change: (BAY)/(DMSO): 2.541
  TG(48:3) Log2 Fold Change: (BAY)/(DMSO): 3.131
  TG(48:4) Log2 Fold Change: (BAY)/(DMSO): 3.96
  TG(48:5) Log2 Fold Change: (BAY)/(DMSO): 5.389
  TG(50:0) Log2 Fold Change: (BAY)/(DMSO): 1.574
  TG(50:2) Log2 Fold Change: (BAY)/(DMSO): 1.881
  TG(50:3) Log2 Fold Change: (BAY)/(DMSO): 2.346
  TG(52:1) Log2 Fold Change: (BAY)/(DMSO): 1.065
  TG(52:5) Log2 Fold Change: (BAY)/(DMSO): 2.418
  TG(54:1) Log2 Fold Change: (BAY)/(DMSO): 0.738
  TG(54:6) Log2 Fold Change: (BAY)/(DMSO): 1.79
  TG(56:7) Log2 Fold Change: (BAY)/(DMSO): 1.418
  UDP Log2 Fold Change: (BAY)/(DMSO): −3.019
  UDP-Glucose Log2 Fold Change: (BAY)/(DMSO): −2.77
  UTP Log2 Fold Change: (BAY)/(DMSO): −3.375
  Uridine Log2 Fold Change: (BAY)/(DMSO): −4.037
  Xanthosine Log2 Fold Change: (BAY)/(DMSO): 3.486
  alpha-Ketoglutaric acid Log2 Fold Change: (BAY)/(DMSO): −1.687
  dCTP Log2 Fold Change: (BAY)/(DMSO): 2.27
  dTDP Log2 Fold Change: (BAY)/(DMSO): 1.896
